Values after ≈ are worked out from the molar mass of the structure shown.
How the values were obtained:
[1] = system: weed; experiment: Membrane Diffusion Raft Trials, weed control; assay type: in vivo, grass-like algal growth common in sea water; settings: membrane test, average 15 to 16 weeks of immersion
Text: (§1) 1). FIELD TESTS: - Membrane Diffusion Raft Trials
(§2) A specially constructed raft provides three types
(§3) a). Waterline Well illuminated, aerated
(§4) b). Flats Poorly illuminated deeper
(§5) A known quantity of the test compound is placed into a cylindrical plastic container whose open end is then covered with a membrane of known porosity; the complete unit is attached to the appropriate raft panel so that the poison can freely diffuse into the free water layer around it. Regular inspections, recording time and quantity of settlement, allow a life history of each membrane trial to be constructed. Each raft panel contains 35 compounds to be evaluated together with 4 standard poisons and 1 non-toxic membrane for control.
(§6) The behavior on the raft can thus be compared with that of the standard poisons and the non-toxic control. At normal loading a membrane over the standard poisons would be free from macro-fouling after six months immersion. Compounds showing selective effects against restricted groups of fouling organisms also show up by membrane testing.
(§7) After the completion of membrane tests the contents of all containers are checked visually for poison loss. An empty container indicates an unacceptably high solubility for long term effectiveness; where the poison loss is low the compound is tested in one of two ways depending on its performance against fouling.
(§8) In the membrane tests, the results of approximately 140 compounds evaluated appear in Table 1. The symbols "0" means no detactable effect, the symbol "+" indicates the compound is active against the given fouling organism, and the symbol "++" means that the compound appears to be effective over at least about a four month period for essentially preventing fouling activity by the given organism. In the Table, "weed" designates a grass-like algal growth common in sea water.
(§9) Membrane Test results are of an average 15 to 16 weeks of immersion,
(§10) ^a 0 = none, + = some, + + = effective.

[2] = Amount of toxicant remaining in the test container after membrane diffusion raft tests; assay type: physicochemical; set-up: key: 0: empty or trace; +: some; + +: ample; settings: after completion of membrane diffusion raft tests
Text: as §5, §7
^b Amount of toxicants remaining in the test container after the
completion of the membrane diffusion raft tests: 0 = empty or trace, + =

[3] = system: barnacle; experiment: Membrane Diffusion Raft Trials, barnacle control; assay type: in vivo, barnacles; settings: membrane test, average 15 to 16 weeks of immersion
Text: as §1, §2, §3, §4, §5, §6, §7, §8, §9, §10
^f The 1975 Spring settlement of barnacles was very meager and the […]

[4] = Water solubility by UV spectrophotometric method; assay type: physicochemical; settings: water, saturated solution; Table 1; read-out: Solubility by UV method
Method: The water solubilities of several isothiazolones were determined by UV spectrophotometric measurements of saturated aqueous solution of each compound in comparison with measurement of solutions of carefully prepared known concentration as outlined in the following example.
DETERMINATION OF SOLUBILITY OF 5-CHLORO-2-(4-FLUOROPHENYL)-4-METHYL-3-ISOTHIAZOLONE OF EXAMPLE 115
A sample of 5-chloro-2-(4-fluorophenyl)-4-methyl-3-isothiazolone (0.0406 g., 1.67 × 10^-4 mole) was dissolved in 50 ml. of methanol. A 5 ml. aliquot of the solution was diluted to 1000 ml. with deionized water, providing a solution of 1.67 × 10^-5 moles/liter concentration. An ultraviolet spectrum of this solution was run using a 10 cm. cell. The absorbance (As) at the wave length of maximum absorption (279 nm.) was 1.208. The molar absorptivity, AM, was calculated from the relationship
where b and c are path length or cell thickness and concentration respectively. Thus, AM was [formula]
Another sample of the compound (0.3-0.5 g.) was stirred vigorously in 40 ml. of deionized water for approximately 72 hrs. to give a saturated solution. The mixture was filtered through very fine filter paper (Whatman No. 50) to remove all suspended solid. Small portions of the filtrate were diluted with water by various factors until an approximately mid-scale absorbance was obtained upon running an ultraviolet spectrum. Such an absorbance was obtained at a dilution of 10. The absorbance was 0.975 in a 10 cm. cell. Using the value for AM obtained earlier, in the equation

Structure (SMILES)	Weed Control [1]	Contents at the end of test (amount of toxicants remaining in the test container) [2]	Barnacle Control [3]	solubility [4] [µg/mL]
Cc1c(Cl)sn(-c2ccc(Oc3ccccc3)cc2)c1=O [Example 124]	0	+ +	0	
O=c1cc(Cl)sn1Cc1ccccc1 [Example 31]				390 (≈ 1730 µM)
CCCCCCCCCCCCn1scc(Br)c1=O [Example 50]	0	+ +	+	
CCC(C)CC(CC)n1sc(Cl)c(Cl)c1=O (stereo not drawn) [Example 62]				85 (≈ 301 µM)
O=c1cc(Cl)sn1-c1ccc(Cl)c(C(F)(F)F)c1 [Example 40]	+	+ +	0	
CCCCCCCCCCCCCCCCCCn1sccc1=O [Example 8]	0	+ +	0	
CCCCCCCCCCCCCCn1sc(Cl)c(C)c1=O [Example 106]	0	+ +	0	
CCCCCCCCCCn1sc(Cl)c(Br)c1=O [Example 89]	0	+ +	0	
O=c1ccsn1CCc1ccc(Cl)cc1 [Example 9]	0	0	0	
O=c1c(Br)csn1-c1ccc(Cl)cc1 [Example 54]	0	+ +	0	
CCCCCCC(C)n1sc(Cl)c(Cl)c1=O (stereo not drawn) [Example 60]				50 (≈ 177 µM)
Cc1cc(-n2sc(Cl)c(C)c2=O)ccc1Br [Example 133]	0	+ +	0	
Cc1ccc(-n2sc(Cl)c(Cl)c2=O)cc1Cl [Example 81]	0	+ +	0	
Cc1c(Cl)sn(-c2cccc(C(F)(F)F)c2)c1=O [Example 129]				12 (≈ 40.9 µM)
CCCCC(CC)Cn1sc(Cl)c(C)c1=O (stereo not drawn) [Example 103]				102 (≈ 390 µM)
Cc1c(Cl)sn(-c2ccc(Br)cc2)c1=O [Example 116]				7 (≈ 23 µM)
CCCCCCCCCCCCn1sc(Br)c(Br)c1=O [Example 97]	0	+ +	0	
CC1CC(n2sc(Cl)c(Cl)c2=O)CC(C)(C)C1 (stereo not drawn) [Example 68]				45 (≈ 153 µM)
Cc1csn(-c2cccc(Cl)c2)c1=O [Example 138]	+	+ +	0	
CCCCCCCCCCn1sc(Br)c(Br)c1=O [Example 96]	0	+ +	0	
Cc1ccc(-n2sc(Cl)c(C)c2=O)cc1 [Example 120]				60 (≈ 250 µM)
Cc1c(Cl)sn(-c2ccc(Cl)cc2Cl)c1=O [Example 135]				4 (≈ 13.6 µM)
CC1CC(n2sc(Cl)cc2=O)CC(C)(C)C1 (stereo not drawn) [Example 28]				185 (≈ 712 µM)
CC(C)CCCC(C)n1sc(Cl)cc1=O (stereo not drawn) [Example 19]				190 (≈ 767 µM)
O=c1c(Br)c(Cl)sn1CCc1ccc(Cl)cc1 [Example 92]	0	+	0	
Cc1c(Cl)sn(-c2ccccc2Cl)c1=O [Example 112]				23 (≈ 88.4 µM)

Structure (SMILES)	Weed Control [1]	Contents at the end of test (amount of toxicants remaining in the test container) [2]	Barnacle Control [3]	solubility [4] [µg/mL]
Cc1c(Cl)sn(-c2cc(Cl)cc(Cl)c2)c1=O [Example 136]				3 (≈ 10.2 µM)
O=c1ccsn1-c1ccccc1 [Example 11]	0	0	0	
Cc1c(Cl)sn(-c2ccc(C(F)(F)F)cc2)c1=O [Example 130]				7 (≈ 23.8 µM)
Cc1c(Cl)sn(C)c1=O [Example 100]	0	0	0	
O=c1c(Br)c(Cl)sn1C1CCCCC1 [Example 90]				45 (≈ 152 µM)
CC(C)(C)CC(C)(C)n1sc(Cl)cc1=O [Example 21]				200 (≈ 807 µM)
CC(c1ccccc1)n1sc(Cl)cc1=O (stereo not drawn) [Example 30]				420 (≈ 1750 µM)
Cn1sc(Br)c(Br)c1=O [Example 94]	+	0	0	
CCCCCCCCCCCCCCCCn1sc(Cl)cc1=O [Example 25]	0	+ +	0	
CCCCCCCCCCCCCCn1sc(Cl)cc1=O [Example 24]	0	+ +	+ +	
O=c1c(Cl)c(Cl)sn1-c1cc(Cl)cc(Cl)c1 [Example 77]	0	+ +	0	
CC(c1ccccc1)n1sc(Cl)c(Cl)c1=O (stereo not drawn) [Example 70]				50 (≈ 182 µM)
CCCCc1ccc(-n2sc(Cl)c(Cl)c2=O)cc1 [Example 83]	0	+ +	+	
CCC(C)CC(CC)n1sc(Cl)cc1=O (stereo not drawn) [Example 20]				300 (≈ 1210 µM)
Cc1csn(-c2ccc(Cl)c(Cl)c2)c1=O [Example 140]	0	+ +	0	
O=c1c(Cl)c(Cl)sn1-c1cccc(Cl)c1 [Example 76]	+	+ +	0	
O=c1c(Cl)csn1Cc1ccc(Cl)cc1 [Example 46]	+	+ +	0	
CC(C)CCCC(C)n1sc(Cl)c(Cl)c1=O (stereo not drawn) [Example 61]				55 (≈ 195 µM)
O=c1c(Cl)c(Cl)sn1-c1ccc([N+](=O)[O-])cc1 [Example 82]	0	+ +	0	
CCCCCCCCCCCCn1sc(Cl)c(C)c1=O [Example 105]	0	+ +	+	
CCCCCCC(C)n1sc(Cl)cc1=O (stereo not drawn) [Example 18]				175 (≈ 706 µM)
O=c1cc(Cl)sn1-c1ccc(Cl)c(Cl)c1 [Example 37]	+	+ +	+	
CCCCCCCCn1sc(Br)c(C)c1=O [Example 102]	+	0	+	
O=c1c(Br)csn1CCc1ccccc1 [Example 52]	0	+	0	
Cc1c(Cl)sn(-c2ccc(Cl)c(C(F)(F)F)c2)c1=O [Example 131]	0	+ +	0	

From patent US4127687A, “Prevention of fouling of marine structures such as boat hulls” (Rohm and Haas Company, priority 1976, dated 1978)
